Source: DBAASP
In brackets after ≈: the same amount, converted by molar mass. Each block holds one molecule with its values, some of them ahead of it.

Columns and labels:
Experiment in all cases: ≥ marks a high value that may be exact or a test limit, other limits are often not marked, values filed in µg/mL are converted to µM
[1] = test system: Escherichia coli ATCC 8739
[2] = test system: Bacillus subtilis ATCC 6633
[3] = test system: Candida albicans ATCC 90028
[4] = test system: Staphylococcus aureus ATCC 6538
[5] = test system: Staphylococcus aureus ATCC 43300
[6] = test system: Staphylococcus epidermidis
[7] = test system: Bacillus subtilis 168
[8] = test system: Staphylococcus aureus 1
[9] = test system: Micrococcus luteus CCM 144
[10] = test system: Pseudomonas aeruginosa ATCC 27853
[11] = test system: Candida albicans F7-39/IDE99
[12] = test system: Escherichia coli B
[13] = test system: Pseudomonas aeruginosa
[14] = test system: Staphylococcus aureus
[15] = test system: Escherichia coli D31
[16] = test system: Streptococcus mutans ATCC 25175
[17] = test system: Pseudomonas aeruginosa ATCC 15442
[18] = test system: Staphylococcus aureus ATCC 25923
[19] = test system: Candida albicans ATCC 10231
[20] = test system: Staphylococcus xylosus
[21] = test system: Escherichia coli DH5alpha
[22] = test system: Micrococcus luteus ATCC 9341
[23] = test system: Escherichia coli ATCC 25922
[24] = test system: Escherichia coli
[25] = test system: Pseudomonas aeruginosa PAO1
[26] = test system: Salmonella enterica serovar Typhimurium
[27] = test system: Acinetobacter baumannii

MIC [1]: ≥ 50 µM
MIC [2]: 12.5 µM (≈ 25.1 µg/mL)
MIC [3]: ≥ 50 µM
MIC [4]: 3.1 µM (≈ 6.22 µg/mL)
MIC [5]: 12.5 µM (≈ 25.1 µg/mL)
SMILES: CC[C@H](C)[C@H](NC(=O)CN)C(=O)N[C@@H](CC(C)C)C(=O)NCC(=O)N[C@H](C(=O)N[C@H](C(=O)N[C@@H](Cc1ccccc1)C(=O)N[C@@H](CCCCN)C(=O)N[C@@H](C)C(=O)NCC(=O)N[C@@H](CCCCN)C(=O)NCC(=O)N[C@H](C(=O)N[C@H](C(=O)N[C@H]1CSSC[C@@H](C(=O)O)NC(=O)[C@H](CC(C)C)NC(=O)CNC(=O)[C@H]([C@@H](C)O)NC(=O)[C@H](CC(C)C)NC(=O)CNC1=O)C(C)C)[C@@H](C)CC)C(C)C)[C@@H](C)O [GILGTVFKAGKGIVCGLTGLC]

MIC [6]: 13 µM (≈ 22.1 µg/mL)
MIC [7]: 7 µM (≈ 11.9 µg/mL)
MIC [8]: ≥ 53 µM
MIC [9]: 3 µM (≈ 5.09 µg/mL)
MIC [10]: 20 µM (≈ 34 µg/mL)
MIC [5]: 63 µM (≈ 107 µg/mL)
MIC [11]: 18 µM (≈ 30.6 µg/mL)
MIC [12]: 15 µM (≈ 25.5 µg/mL)
MIC [13]: 68 µM (≈ 115 µg/mL)
MIC [14]: 64 µM (≈ 109 µg/mL)
SMILES: CC[C@H](C)[C@H](NC(=O)CN)C(=O)N[C@@H](CCSC)C(=O)N[C@@H](CO)C(=O)N[C@@H](CO)C(=O)N[C@@H](CC(C)C)C(=O)N[C@@H](CCSC)C(=O)N[C@@H](CCCCN)C(=O)N[C@@H](CCCCN)C(=O)N[C@@H](CC(C)C)C(=O)N[C@@H](C)C(=O)N[C@@H](C)C(=O)N[C@@H](Cc1cnc[nH]1)C(=O)N[C@H](C(=O)N[C@@H](C)C(=O)N[C@@H](CCCCN)C(N)=O)[C@@H](C)CC [GIMSSLMKKLAAHIAK]

MIC [6]: 2.9 µM (≈ 5.19 µg/mL)
MIC [7]: 7 µM (≈ 12.5 µg/mL)
MIC [8]: 8.6 µM (≈ 15.4 µg/mL)
MIC [9]: 3 µM (≈ 5.37 µg/mL)
MIC [10]: 5.2 µM (≈ 9.3 µg/mL)
MIC [5]: 33 µM (≈ 59 µg/mL)
MIC [11]: 7.6 µM (≈ 13.6 µg/mL)
MIC [12]: 15 µM (≈ 26.8 µg/mL)
MIC [13]: 10 µM (≈ 17.9 µg/mL)
MIC [14]: 17 µM (≈ 30.4 µg/mL)
SMILES: CC[C@H](C)[C@H](NC(=O)CN)C(=O)N[C@@H](CCSC)C(=O)N[C@@H](CO)C(=O)N[C@@H](CO)C(=O)N[C@@H](CC(C)C)C(=O)N[C@@H](CCSC)C(=O)N[C@@H](CCCCN)C(=O)N[C@@H](CCCCN)C(=O)N[C@@H](CC(C)C)C(=O)N[C@@H](C)C(=O)N[C@@H](CCCCN)C(=O)N[C@H](C(=O)N[C@H](C(=O)N[C@@H](CCCCN)C(=O)N[C@@H](CCCCN)C(N)=O)[C@@H](C)CC)[C@@H](C)CC [GIMSSLMKKLAKIIKK]

MIC [6]: 1.5 µM (≈ 2.74 µg/mL)
MIC [7]: 7 µM (≈ 12.8 µg/mL)
MIC [8]: 4.6 µM (≈ 8.4 µg/mL)
MIC [9]: 3 µM (≈ 5.48 µg/mL)
MIC [10]: 6.3 µM (≈ 11.5 µg/mL)
MIC [5]: 20 µM (≈ 36.5 µg/mL)
MIC [11]: 16 µM (≈ 29.2 µg/mL)
MIC [12]: 1.6 µM (≈ 2.92 µg/mL)
MIC [13]: 21 µM (≈ 38.3 µg/mL)
MIC [14]: 5.3 µM (≈ 9.67 µg/mL)
SMILES: CC[C@H](C)[C@H](NC(=O)CN)C(=O)N[C@@H](Cc1c[nH]c2ccccc12)C(=O)N[C@@H](CO)C(=O)N[C@@H](CO)C(=O)N[C@@H](CC(C)C)C(=O)N[C@@H](CC(C)C)C(=O)N[C@@H](CCCCN)C(=O)N[C@@H](CCCCN)C(=O)N[C@@H](CC(C)C)C(=O)N[C@@H](CCCCN)C(=O)N[C@@H](CCCCN)C(=O)N[C@H](C(=O)N[C@H](C(=O)N[C@@H](C)C(=O)N[C@@H](CCCCN)C(N)=O)[C@@H](C)CC)[C@@H](C)CC [GIWSSLLKKLKKIIAK]

MIC [15]: ≥ 100 µM
MIC [16]: ≥ 100 µM
MIC [17]: ≥ 100 µM
MIC [18]: 45.3 µM (≈ 107 µg/mL)
MIC [19]: > 100 µM
SMILES: CC(C)C[C@H](NC(=O)CN)C(=O)N[C@H](C(=O)N[C@H](C(=O)N[C@@H](CC(=O)O)C(=O)N[C@H](C(=O)N[C@@H](CC(C)C)C(=O)N[C@@H](CCCCN)C(=O)NCC(=O)N[C@@H](C)C(=O)N[C@@H](C)C(=O)N[C@@H](CCCCN)C(=O)N[C@H](C(=O)N[C@H](C(=O)N[C@@H](C)C(=O)N[C@@H](C)C(=O)N[C@@H](CCC(=O)O)C(=O)N[C@@H](CC(C)C)C(=O)N[C@@H](CC(C)C)C(=O)N[C@@H](CCCN=C(N)N)C(=O)N[C@@H](CCCCN)C(=O)N[C@@H](C)C(=O)N[C@@H](Cc1cnc[nH]1)C(N)=O)C(C)C)[C@@H](C)O)[C@@H](C)O)[C@@H](C)O)C(C)C [GLVTDTLKGAAKTVAAELLRKAH]

MIC [1]: 12.5 µM (≈ 38.9 µg/mL)
MIC [3]: ≥ 100 µM
MIC [4]: 3.1 µM (≈ 9.66 µg/mL)
MIC [5]: 12.5 µM (≈ 38.9 µg/mL)
SMILES: CC[C@H](C)[C@H](NC(=O)[C@H](CCCCN)NC(=O)[C@@H](NC(=O)[C@H](CO)NC(=O)[C@H](CC(N)=O)NC(=O)[C@H](Cc1c[nH]c2ccccc12)NC(=O)[C@H](CC(C)C)NC(=O)CN)[C@@H](C)CC)C(=O)N[C@@H](C)C(=O)NCC(=O)N[C@@H](CCCCN)C(=O)N[C@@H](CC(N)=O)C(=O)N[C@@H](CC(C)C)C(=O)N[C@@H](Cc1ccccc1)C(=O)N[C@H](C(=O)N[C@@H](CC(N)=O)C(=O)N[C@H](C(=O)N[C@@H](CC(C)C)C(=O)N[C@@H](CC(=O)O)C(=O)N[C@@H](CCCCN)C(=O)N[C@H](C(=O)N[C@@H](CCCN=C(N)N)C(=O)N[C@H]1CSSC[C@@H](C(=O)O)NC(=O)CNC(=O)CNC(=O)[C@H](C)NC(=O)[C@H](C(C)C)NC(=O)[C@H](CCCCN)NC1=O)[C@@H](C)CC)C(C)C)C(C)C [GLWNSIKIAGKNLFVNVLDKIRCKVAGGC]

MIC [20]: ≥ 64 µM
MIC [21]: ≥ 64 µM
SMILES: CC[C@H](C)[C@H](N)C(=O)N[C@@H](CC(C)C)C(=O)N[C@H](C(=O)N[C@@H](CC(C)C)C(=O)N[C@H](C(=O)N[C@@H](CCCCN)C(=O)N[C@@H](CCCN=C(N)N)C(=O)N[C@@H](CCCCN)C(=O)O)[C@@H](C)CC)[C@@H](C)CC [ILILIKRK]

MIC [22]: 0.4 µM (≈ 0.728 µg/mL)
SMILES: CC[C@H](C)[C@H](N)C(=O)N[C@@H](CC(C)C)C(=O)N1CCC[C@H]1C(=O)N[C@@H](Cc1c[nH]c2ccccc12)C(=O)N[C@@H](CCCCN)C(=O)N[C@@H](Cc1c[nH]c2ccccc12)C(=O)N1CCC[C@H]1C(=O)N[C@@H](Cc1c[nH]c2ccccc12)C(=O)N[C@@H](Cc1c[nH]c2ccccc12)C(=O)N1CCC[C@H]1C(=O)N[C@@H](Cc1c[nH]c2ccccc12)C(=O)N[C@@H](C)C(=O)N[C@@H](CCCN=C(N)N)C(N)=O [ILPWKWPWWPWAR]

MIC [20]: 16 µM (≈ 18 µg/mL)
MIC [21]: ≥ 32 µM
SMILES: CC[C@H](C)[C@H](NC(=O)[C@H](CC(C)C)NC(=O)[C@@H](NC(=O)[C@H](CC(C)C)NC(=O)[C@@H](NC(=O)[C@@H](N)CCCCN)[C@@H](C)CC)[C@@H](C)CC)C(=O)N[C@@H](CCCCN)C(=O)N[C@@H](CCCN=C(N)N)C(=O)N[C@@H](CCCCN)C(=O)O [KILILIKRK]

MIC [20]: 2 µM (≈ 2.82 µg/mL)
MIC [21]: 8 µM (≈ 11.3 µg/mL)
SMILES: CC[C@H](C)[C@H](NC(=O)[C@H](CC(C)C)NC(=O)[C@@H](NC(=O)[C@H](CC(C)C)NC(=O)[C@@H](NC(=O)[C@H](CCCCN)NC(=O)[C@H](CCCN=C(N)N)NC(=O)[C@@H](N)CCCCN)[C@@H](C)CC)[C@@H](C)CC)C(=O)N[C@@H](CCCCN)C(=O)N[C@@H](CCCN=C(N)N)C(=O)N[C@@H](CCCCN)C(=O)O [KRKILILIKRK]

MIC [20]: 8 µM (≈ 14.7 µg/mL)
MIC [21]: 16 µM (≈ 29.4 µg/mL)
SMILES: CC[C@H](C)[C@H](NC(=O)[C@H](CC(C)C)NC(=O)[C@@H](NC(=O)[C@H](CCCN=C(N)N)NC(=O)[C@H](CCCCN)NC(=O)[C@H](CCCN=C(N)N)NC(=O)[C@H](CCCCN)NC(=O)[C@H](CC(C)C)NC(=O)[C@@H](NC(=O)[C@H](CC(C)C)NC(=O)[C@H](CCCCN)NC(=O)[C@@H](N)CCCN=C(N)N)[C@@H](C)CC)[C@@H](C)CC)C(=O)N[C@@H](CCCCN)C(=O)N[C@@H](CCCN=C(N)N)C(=O)O [RKLILKRKRILIKR]

MIC [23]: 10.8 µM (≈ 16 µg/mL)
MIC [24]: 30.5 µM (≈ 45.3 µg/mL)
MIC [25]: 10.8 µM (≈ 16 µg/mL)
MIC [26]: 5.39 µM (≈ 8 µg/mL)
MIC [27]: 21.6 µM (≈ 32 µg/mL)
MIC [13]: 10.8 µM (≈ 16 µg/mL)
MIC [18]: 10.8 µM (≈ 16 µg/mL)
MIC [14]: 7.63 µM (≈ 11.3 µg/mL)
SMILES: CC[C@H](C)[C@H](NC(=O)[C@H](CCCN=C(N)N)NC(=O)[C@H](CC(C)C)NC(=O)[C@H](CCC(N)=O)NC(=O)[C@@H](N)C(C)C)C(=O)N[C@@H](CCCN=C(N)N)C(=O)N[C@H](C(=O)N[C@@H](CS)C(=O)N[C@H](C(=O)N[C@H](C(=O)N[C@@H](CCCN=C(N)N)C(=O)N[C@@H](CCCCN)C(=O)O)[C@@H](C)CC)C(C)C)C(C)C [VQLRIRVCVIRK]
